Laboratory results: patent US7498304B2, “Angiogenesis-modulating compositions and uses” (Curis, Inc., priority 2002, dated 2009)

Legend:
[1] = tested on: Shh signaling pathway in MEFs homozygous for ptc-lacZ (cell line 23-1); experiment: β-galactosidase activity in ptc-lacZ homozygous mouse embryonic fibroblasts; assay type: cell-based; settings: normalized to whole protein content
Description: These studies involve the use of mouse embryonic fibroblasts (MEFs) that were generated by trypsin digestion of E8.5 embryos from patched (ptc) ±matings. […] Thus, in these ptc−/− embryos, the Shh signaling pathway is activated in many tissues, and the lacZ gene product β-galactosidase is expressed in all of those tissues as a report of pathway activation.
The Shh signaling pathway can be activated in these fibroblasts in cell culture, and that the level of β-galactosidase activity does reflect the degree of pathway activation. The MEF line 23-4 is heterozygous for ptc-lacZ, and thus contains one functional ptc allele capable of maintaining a repressed state of the pathway, but will express lacZ when the pathway is activated by addition of Shh protein.

[2] = tested on: normal human fibroblasts (CCD37); experiment: normal human fibroblasts (CCD37), competitive RT-PCR and VEGF165 ELISA; assay type: cell-based
Description: To determine if hedgehog can directly induce fibroblasts to produce VEGF or other angiogenic factors, we treated normal human fibroblasts (CCD37) with Myr-Shh and the ability of fibroblasts to respond was evaluated by competitive RT-PCR for ptc 1 and several angiogenic growth factors. Total RNA was prepared from cells treated as described above using Trizol (Life Technologies, Rockville, Md.). Four micrograms of total RNA was used to prepare cDNA using the SuperScriptTM preamplification system (Cat. No. 18089-011, Life Technologies, Rockville, Md.). The PCR reaction using buffer reagents from the SuperScriptTM preamplification system (Life Technologies, Rockville, Md.) was quantitated with […] competitive primers (Ambion). Primers for the amplification of Ptc 1 were [NT] ID NO: 38) and [NT] ID NO: 39) which are based on ptc1 cDNA sequence (GenBank Accession Number U46155). All amplification for Ptc1 were done with 25 cycles of 94° C. for 30 sec; 55° C. for 1 min; 72° C. for 1 min. The cDNA from the same cells was also used as a template for VEGF, bFGF, Angiopoietin 1, and Angiopoietin II amplification. The following primer pairs and PCR cycles were used: […] [NT] ID NO: 40) and [NT] ID NO: 41) which are based on the human VEGF cDNA sequence (GenBank Accession Number E15157). VEGF product was amplified with 30 cycles of 94° C. for 30 sec; 62° C. for 1 min; 72° C. for 1 min; bFGF: [NT] ID NO: 42) and [NT] ID NO: 43) which is based on the human bFGF cDNA sequence (GenBank Accession Number M27968). bFGF product was amplified with 25 cycles of 94° C. for 30 sec; 62° C. for 1 min; 72° C. for 1 min; Angiopoietin I [NT] ID NO: 44) and [NT] ID NO: 45) which is based on human Angiopoietin I cDNA sequence (GenBank Accession Number U83508). Angiopoietin I product was amplified with 25 cycles of 94° C. for 30 sec; 64° C. for 90 sec; Angiopoietin II: [NT] ID NO:46) and [NT] ID NO: 47) which are based on human Angiopoietin II cDNA sequence (GenBank Accesion Number AB009865). Angiopoietin II product was amplified with 32 cycles of 94° C. for 30 sec; 64° C. for 90 sec. As internal control for sample preparation, gel loading, and random variations in RT-PCR, 18S rRNA primers and 18S rRNA competimers (Ambion, Austin, Tex.), used to modify 18S cDNA amplification efficiency, were included in each PCR reaction with target gene-specific primers. The linear range of amplification and optimal 18S primer/Competimer ratio was determined for each target gene following the manufacturer's recommendations (Ambion, Austin, Tex.). […] VEGF 121, 165, and 189 upregulation began at 12 hours and was maximal after 48 hours of incubation of the cells with Shh. […] Cells were stimulated with recombinant human myristolated Shh protein as described above. At harvest, the cell conditioned media was collected, centrifuged to remove cell debris (15 minutes at 1500×g) and production of VEGF165 protein was evaluated by using an ELISA kit (Quantikine human VEGF, R&D Systems, Minneapolis, Minn.).

mouse cornea = experiment: mouse corneal pocket model of angiogenesis; assay type: in vivo
Description: To confirm the angiogenic activity of hedgehog in another well accepted model of angiogenesis, we tested the ability of hedgehog protein to induce neovascularization in the mouse corneal model pocket model of angiogenesis.
Animals were anesthetized by pentobarbital intraperitoneal injection (160 mg/kg). Corneal pockets were created in the eyes of each mouse and a 0.34×0.34 mm sucrose albumin sulfate (Bukh Meditec, Vaerlose, DK) pellet coated with hydron polymer type NCC (Interferon Sciences, New Brunswick, N.J.) containing 1 of the agents indicated below was implanted into the corneal pocket. […] mice were divided into 5 groups: control buffer alone; VEGF 300 ng/pellet; Myr-Shh vehicle alone; Myr-Shh 1.5 microg/pellet […]; Myr-Shh+VEGF (1.5 microg/pellet +300 ng/pellet, respectively). Pellets were positioned 1.0 mm from the corneal limbus, and erythromycin ophthalmic ointment (E. Fourera) was applied to each operated eye. The corneas of all mice were routinely examined by slit-lamp biomicroscopy on postoperative day 6 after pellet implantation.
On the same day vessel length and corneal circumferential neovascularity (in degrees) were measured. After completing these measurements, C57BL/6J mice received an intravenous injection of […] of BS-1 lectin FITC-conjugated (Vector Laboratories, Burlingame, Calif.). Thirty minutes later, the animals were sacrificed. The eyes were enucleated and fixed in 1% paraformaldehyde solution. After fixation, the corneas were placed on glass slides and examined by fluorescence microscopy.
To determine the mechanism by which Shh induces angiogenesis both Shh and VEGF-stimulated corneas (see Example 3) were excised and X-gal stained as described in Example 1 after fixation of the whole eye for 1 hour in 1% paraformaldehyde followed by enucleation and fixation of the corneal hemisphere in 1% paraformaldehyde for 30 minutes. […] Endothelial cell immunostaining was done with a rat monoclonal antibody against mouse CD-31 (Pharmigen, San Diego, Calif.) followed by a biotinylated goat anti-rat immunoglobulin secondary antibody. Smooth muscle cells and pericytes were identified with a mouse monoclonal antibody against SM a-actin conjugated with alkaline-phosphatase (Sigma, St. Louis, Mo.) and fibroblasts were identified using an anti-vimentin antibody (Sigma, St. Louis, Mo.).
We then immunostained the Shh-induced corneas with a rabbit polyclonal anti-VEGF antibody (Santa Cruz Biotechnology, Santa Cruz, Calif.) with a biotinylated goat anti-rabbit immunoglobulin as secondary antibody.

[3] = tested on: human umbilical vein and microvascular endothelial cells; experiment: response of endothelial cells to Hh; assay type: cell-based
[4] = tested on: vascular smooth muscle cells (PAC 1), normal human lung fibroblasts, normal prostate stromal cells; experiment: ptc 1 RT-PCR in smooth muscle cells, lung fibroblasts and prostate stromal cells; assay type: cell-based; settings: 1 ug/ml for 2 days, vs vehicle
Description: Eighty five percent confluent monolayers of vascular smooth muscle cells (PAC 1) were induced for 2 days with 1 ug/ml of myrShh or an equivalent volume of vehicle in normal media (M 199 complete media with 10% fetal bovine serum). For comparison, primary normal human lung fibroblasts and normal prostate stromal cells were grown in complete FBM and similarly stimulated (Clonetics/Bio-Whittaker, Walkersville, Md.). The cells were harvested and RNA from the cells was prepared and analysed by RT-PCR as above. […] In addition, hedgehog protein induced DNA synthesis in quiescent vascular SMCs and human fibroblasts. PAC-1 (Rothman et al., 1992), WKY (Lemire et al., 1994), primary pulmonary artery SMCs or aortic SMCs (Clonetics/Bio-Whittaker, Walkersville, Md.) were plated (5×10^3/well) in 96 well plates and allowed to adhere for 2-3 hours in 0.18 ml of complete media (M 199 with 10% fetal bovine serum for PAC 1 cells, DMEM with 10% fetal bovine serum for WKY cells or smGM-2 for primary human pulmonary artery or aortic SMCs). The cells were then starved for 18-24 hours in complete media with 0.5% fetal bovine serum. […] 3H-thymidine uptake into cells was determined by scintillation counting using a 1205 Betaplate counter (Wallac, Gaithersburg, Md.).

[5] = pellet: Myr-Shh 1.5 microg or VEGF 300 ng

Compound | β-galactosidase activity [1] | start of VEGF 121, 165 and 189 upregulation [2] [h] | time of maximal VEGF 121, 165 and 189 upregulation [2] [h] | time of maximal increase of Ang-1 and Ang-2 [2] [h] | VEGF mRNA isoforms (VEGF121, 165, 189) ([2]; RT-PCR) | bFGF mRNA ([2]; any time-points) | VEGF production (VEGF165 protein in cell media, ELISA) ([2]; at 72 hours) | Ang-1 and Ang-2 mRNA ([2]; quantitative RT-PCR) | Ptc1 gene expression ([2]; time course) | X-gal staining (Ptc 1 expression) of corneas (mouse cornea; Ptc1-lacZ corneas) | VEGF immunostaining of corneas (mouse cornea; anti-VEGF antibody) | density of vessels (mouse cornea; compared with VEGF) | maximum vessel lengths (mouse cornea; [5]) | vessel diameters (mean) (mouse cornea; [5]) [um] | neovascular growth (mouse cornea; pellet: Myr-Shh 1.5 microg or VEGF 300 ng, day 6) | vessel length, circumferential neovascularity and diameter of the lumens (mouse cornea; summary) | response to Hh [3] | ptc 1 expression [4]
C[C@H]1CC[C@]2(NC1)O[C@H]1C[C@H]3[C@@H]4CC[C@H]5C[C@@H](O)CC[C@]5(C)[C@H]4CC[C@]3(C)[C@H]1[C@@H]2C [tomatidine] | cannot be achieved | – | – | – | – | – | – | – | – | – | – | – | – | – | – | – | – | –
Myr-Shh: recombinant human myristolated Shh protein (myristylated Sonic hedgehog) | – | 12 | 48 | 36 | strongly upregulated | No bFGF upregulation was detectable | significant upregulation | upregulation of both genes | upregulating the Ptc1 gene | strong X-gal staining | VEGF protein is in the fibroblasts and matrix immediately adjacent to the neovascular area | slightly lower | 1020+200 um | 33±17 | significant neovascular growth | statistically significant increase | Neither human umbilical vein and microvascular endothelial cells respond | increased ptc 1 expression
